How the values were obtained:
[1] = test system: Proteus Mirabilis (ATCC 29906); assay: Antibacterial Test 1: bacterial growth inhibition rate by absorbance at 600 nm; assay type: cell-based; settings: 0.1 g sample in 25 ml nutrient broth, 3000 CFU/ml, 37° C., 16 hours
Description: Antibacterial tests were performed on the antibacterial polymers prepared in Examples and Comparative Examples. Specifically, in the antibacterial test, the bacterial growth inhibition rate (%) was measured by the following method. In addition, the bacterial growth inhibition rate (%) of Icaridin and Menthol acrylate as single molecules was also measured by the same method and shown as Comparative Examples 2 and 3.
0.1 g of the antibacterial polymer prepared above was added to 25 ml of nutrient broth culture medium inoculated with the test bacterium Proteus Mirabilis (ATCC 29906) at 3000 CFU/ml, and then incubated in a shaking incubator (VS-37SIF, produced by Visiontech) at 37° C. for 16 hours. The absorbance at 600 nm wavelength of the cultured solution was measured using a UV-Vis Spectrophotometer (Optizen POP, produced by K Lab). In addition, in a pure culture medium containing no antibacterial polymer, a solution prepared by culturing Proteus Mirabilis (ATCC 29906) at 37° C. for 16 hours was prepared as a control group, and the absorbance at a 600 nm wavelength was measured by the same manner as above. Using the measurement result, the bacterial growth inhibition rate (%) of Proteus Mirabilis (ATCC 29906) was calculated according to Equation 1 below, and the results are shown in Table 1 below. […]

E. Coli = assay: Antibacterial Test 2: bacterial reduction rate, ASTM E 2149 test method; assay type: cell-based, Escherichia coli; settings: 0.2 g sample, 10 mL PBS with E. Coli, 37° C., colony count; for 1 hour-bacterial reduction rate: 1 hour-contact; for 24 hour-bacterial reduction rate: 24 hour-contact
Description: Antibacterial tests were performed on the antibacterial polymers prepared in Examples and Comparative Examples. Specifically, based on the ASTM E 2149 antibacterial test method, the bacterial reduction rate (%) was measured by the following method. In addition, the bacterial reduction rates (%) of Icaridin and Menthol acrylate as single molecules was also measured by the same method and shown as Comparative Examples 2 and 3.
The sample (0.2 g) was placed in a 50 mL conical tube, to which 1× PBS (10 mL) inoculated with E. Coli (1.5×10^5 CFU/mL) was added, and cultured for 1 hour and 24 hours in a shaking incubator at 37° C., so as to allow the bacteria and the material to come into sufficient contact with each other. In order to check the colony of E. coli in the cultured sample, the sequentially diluted solution was spread on a TSA Agar plate, and then cultured for 16 hours so as to form colonies in an incubator at 30° C. The degree of bacterial culture was grasped from the number of colonies formed, and the antibacterial performance was compared.
In the above equation, Cs is the number of microorganisms (CFU/ml) in the experimental group, which can be confirmed as the number of colonies formed on the TSA Agar plate, and C0 is the number of microorganisms in the control group, which means the number of E. Coli in PBS to which the sample was not added.

[2] = Comparison of thermal decomposition behavior by TGA of PMMA blends; assay type: physicochemical; settings: TGA step 4, 50° C. to 600° C., 10° C./min, nitrogen; 40 parts by weight in 100 parts PMMA
Description: Poly(Methyl methacrylate) (TCI Chemical, CAS RN: 9011-14-7) was put into a Mixed Torque Rheometer (HAPRO), and then the temperature was raised to 160° C. and the mixture was mixed for 5 minutes. PIA-2 and icaridin were added in an amount of 40 parts by weight based on 100 parts by weight of poly(methyl methacrylate), respectively, mixed at a temperature of 160° C. for 30 minutes, and then cooled to room temperature to obtain a sample.
In order to confirm the thermal decomposition behavior of the prepared sample, experiments were performed as shown in Table 2 below using TGA (Thermogravimetric Analyzer, TA Instrument, DISCOVERY TGA 550 W/MFC & AUTO).

| SMILES | Bacterial growth inhibition rate [1] [%] | 1 hour-bacterial reduction rate (E. Coli) [%] | 24 hour-bacterial reduction rate (E. Coli) [%] | Thermal decomposition behavior / heat resistance [2] |
| --- | --- | --- | --- | --- |
| C=CC(=O)OC1CC(C)CCC1C(C)C (stereo not shown) [compound 3, Menthol acrylate] | 0.2 | 0 | 0 |  |
| CCC(C)OC(=O)N1CCCCC1CCO (stereo not shown) [compound 2, Icaridin] | 11.24 | 3.17 | 13.89 | proceeds decomposition from a lower temperature than that of PIA-2 |
